Results: patent EP4640052A1 (BASF SE, priority 2024, dated 2025)
“And” between values parts separate entries of the source, which are not always exact repeats. Equal entries are not always repeated. Where two headings read alike, the source gives them in different places.

Assays:
[1] = test system: Septoria tritici (SEPTTR); experiment: microbe, parasite or virus in culture; format: cell-based; details: for inhibition of growth at 0.063 ppm / inhibition of growth at 0.25 ppm / inhibition of growth at 1 ppm: Zymoseptoria tritici, 168 h, read-out: Observed efficacy
[2] = test system: Blumeria graminis f. sp. tritici; experiment: Green house use example 11: control of powdery mildew on wheat, sprayed 2 days after inoculation (ERYSGT K2); format: in vivo; details: G143A strain, single active
[3] = test system: Phakopsora pachyrhizi; experiment: Green house use example 13: curative control of soybean rust on soybeans (PHAKPA F129L K4); format: in vivo
[4] = test system: Sclerotinia sclerotiorum (SCLESC); experiment: microbe, parasite or virus in culture; format: cell-based
[5] = test system: Pyricularia oryzae (PYRIOR); experiment: microbe, parasite or virus in culture; format: cell-based; details: for inhibition of growth at 0.016 ppm / inhibition of growth at 0.063 ppm: Pyricularia oryzae, 168 h, read-out: Observed efficacy; for Observed efficacy: single active
[6] = test system: Monilinia sp. (MONISP); experiment: microbe, parasite or virus in culture; format: cell-based; details: Monilinia, 168 h, read-out: Observed efficacy
[7] = test system: Blumeria graminis f. sp. tritici; details: in vivo
[8] = test system: Pyrenophora teres (PYRNTE), Qol resistant (F129L); experiment: microbe, parasite or virus in culture; format: cell-based
[9] = test system: Alternaria solani (ALTESO); experiment: microbe, parasite or virus in culture; format: cell-based; details: Alternaria solani, 168 h, read-out: Observed efficacy
[10] = test system: Cercospora sojina (CERCSO); format: cell-based
[11] = test system: Phakopsora pachyrhizi; details: in vivo
[12] = test system: Corynespora cassiicola (CORYCA), Qol resistant (G143A); SDHI resistant (N75S in SdHC); format: cell-based
[13] = test system: Phakopsora pachyrhizi; experiment: Green house use example 14: protective control of soybean rust on soybeans (PHAKPA F129L P2); format: in vivo; details: single compound, 0.5 ppm
[14] = test system: Puccinia triticina (syn. P. recondita); experiment: Green house use example 9: curative control of brown rust on wheat (PUCCRT K4); format: in vivo
[15] = test system: Puccinia triticina (syn. P. recondita); experiment: Green house use example 10: preventative control of brown rust on wheat (PUCCRT P10); format: in vivo; details: wheat, sprayed 10 days before inoculation; single active, 1 ppm
[16] = Trial 1, single compound, 4 ppm
[17] = Sclerotinia sclerotiorum, 168 h, read-out: Observed efficacy
[18] = Pyrenophora teres, 168 h, read-out: Observed efficacy
[19] = Trial 3, single compound, 4 ppm
[20] = Trial 1, single compound, 1 ppm
[21] = Trial 2, single compound, 1 ppm

Which results are given for CC(Cc1ccc(C(C)(C)C)cc1)CN1C[C@@H](C)O[C@@H](C)C1 (stereo partly shown) [fenpropimorph, reference compound]?
inhibition of growth at 0.063 ppm [1]: 0%; inhibition of growth at 0.25 ppm [1]: 0%; inhibition of growth at 1 ppm [1]: 44%; Observed efficacy ([2]; 16 ppm): 32; Observed efficacy ([2]; 63 ppm): 35; Observed efficacy [3, 16]: 8; Observed efficacy ([3]; Trial 1, single compound, 12 ppm): 13; Observed efficacy ([3]; Trial 2, single compound, 4 ppm): 6; Observed efficacy ([3]; Trial 2, single compound, 16 ppm): 11; inhibition of growth at 1 ppm [4, 17]: 39%; inhibition of growth at 4 ppm [4, 17]: 65%; inhibition of growth at 0.016 ppm [5]: 0%; inhibition of growth at 0.016 ppm [6]: 2%; Observed efficacy [7]: 16; inhibition of growth at 1 ppm [8, 18]: 33%; inhibition of growth at 0.25 ppm [9]: 18%; inhibition of growth at 1 ppm [9]: 61%; Observed efficacy [10]: 3%; Observed efficacy [11]: 0

Which Observed efficacy [1] does the source give for Cc1nc2c(F)c(F)ccc2cc1Oc1cccc(F)c1C(C)(C)O [ipflufenoquin, reference compound] here?
Its Observed efficacy is 48 and 41 and 26.

And the Observed efficacy [4]?
The Observed efficacy was 4 and 3.

What about the Observed efficacy ([5]; 0.004 ppm) of the same molecule?
Its Observed efficacy is 12%.

And the Observed efficacy ([5]; 0.016 ppm)?
Its Observed efficacy is 15%.

What about the Observed efficacy ([5]; 0.063 ppm) of the same molecule?
Its Observed efficacy is 12%.

What about the Observed efficacy [12] of the same molecule?
Its Observed efficacy is 11%.

Which results are given for COc1ccnc(C(=O)N[C@@H](C)C(=O)O[C@@H](C)C(c2ccc(F)cc2)c2ccc(F)cc2)c1OC(C)=O [florylpicoxamid, reference compound]?
Observed efficacy ([5]; 0.016 ppm): 66%; Observed efficacy [12]: 13%; Observed efficacy [8]: 39 and 21; Observed efficacy [10]: 16%

How did the inhibition of growth at 0.063 ppm [1] turn out when CO/C=C(/C(=O)OC)c1cccc(Cl)c1CO/N=C(\COC)c1ccccc1 [I.1, Methyl-(E)-2-[3-chloro-2-[[(Z)-(2-methoxy-1-phenyl-ethylidene)amino]oxymethyl]-phenyl]-3-methoxy-prop-2-enoate] was run?
The inhibition of growth at 0.063 ppm was 0%.

And the inhibition of growth at 0.25 ppm [1]?
Its inhibition of growth at 0.25 ppm is 45%.

And the Observed efficacy [13]?
The Observed efficacy was 80.

And the Observed efficacy [3, 16]?
Its Observed efficacy is 37.

What about the Observed efficacy [3, 19] of the same molecule?
Its Observed efficacy is 71.

And the inhibition of growth at 0.063 ppm [4, 17]?
Its inhibition of growth at 0.063 ppm is 2%.

What about the inhibition of growth at 0.016 ppm [5] of the same molecule?
The inhibition of growth at 0.016 ppm was 25%.

And the inhibition of growth at 0.063 ppm [5]?
The inhibition of growth at 0.063 ppm was 64%.

What about the Observed efficacy [7] of the same molecule?
Its Observed efficacy is 0.

What about the inhibition of growth at 0.016 ppm [8, 18] of the same molecule?
The inhibition of growth at 0.016 ppm was 14%.

And the inhibition of growth at 0.063 ppm [8, 18]?
The inhibition of growth at 0.063 ppm was 48%.

What about the inhibition of growth at 0.25 ppm [8, 18] of the same molecule?
The inhibition of growth at 0.25 ppm was 72%.

What about the inhibition of growth at 0.016 ppm [9] of the same molecule?
Its inhibition of growth at 0.016 ppm is 12%.

What about the inhibition of growth at 0.063 ppm [9] of the same molecule?
The inhibition of growth at 0.063 ppm was 29%.

And the Observed efficacy [14, 20]?
The Observed efficacy was 3.

What about the Observed efficacy [14, 16] of the same molecule?
Its Observed efficacy is 58.

And the Observed efficacy [14, 21]?
The Observed efficacy was 0.

And the Observed efficacy [11]?
Its Observed efficacy is 61.

Which inhibition of growth at 0.063 ppm [1] does the source give for CO/C=C(/C(=O)OC)c1cccc(Cl)c1CO/N=C(\COC)c1c(F)cc(F)cc1F [I.9, Methyl-(E)-2-[3-chloro-2-[[(Z)-[2-methoxy-1-(2,4,6-trifluorophenyl)ethylidene]-amino]oxymethyl]phenyl]-3-methoxy-prop-2-enoate] here?
The inhibition of growth at 0.063 ppm was 0%.

And the inhibition of growth at 0.25 ppm [1]?
The inhibition of growth at 0.25 ppm was 6%.

What about the inhibition of growth at 1 ppm [1] of the same molecule?
The inhibition of growth at 1 ppm was 60%.

What about the Observed efficacy [13] of the same molecule?
Its Observed efficacy is 59.

And the Observed efficacy [3, 16]?
Its Observed efficacy is 12.

And the Observed efficacy [3, 19]?
The Observed efficacy was 3.

What about the inhibition of growth at 0.063 ppm [4, 17] of the same molecule?
Its inhibition of growth at 0.063 ppm is 11%.

What about the inhibition of growth at 1 ppm [4, 17] of the same molecule?
The inhibition of growth at 1 ppm was 50%.

What about the inhibition of growth at 0.063 ppm [5] of the same molecule?
The inhibition of growth at 0.063 ppm was 32%.

And the inhibition of growth at 0.001 ppm [6]?
Its inhibition of growth at 0.001 ppm is 17%.

And the inhibition of growth at 0.063 ppm [6]?
Its inhibition of growth at 0.063 ppm is 42%.

What about the inhibition of growth at 0.25 ppm [6] of the same molecule?
The inhibition of growth at 0.25 ppm was 76%.

What about the inhibition of growth at 0.016 ppm [8, 18] of the same molecule?
Its inhibition of growth at 0.016 ppm is 7%.

And the inhibition of growth at 0.063 ppm [8, 18]?
The inhibition of growth at 0.063 ppm was 44%.

What about the inhibition of growth at 0.25 ppm [8, 18] of the same molecule?
Its inhibition of growth at 0.25 ppm is 74%.

And the inhibition of growth at 0.004 ppm [9]?
Its inhibition of growth at 0.004 ppm is 1%.

And the inhibition of growth at 0.063 ppm [9]?
The inhibition of growth at 0.063 ppm was 3%.

And the Observed efficacy [14, 21]?
The Observed efficacy was 0.

What about the Observed efficacy ([14]; Trial 2, single compound, 2 ppm) of the same molecule?
Its Observed efficacy is 0.

And the Observed efficacy [11]?
Its Observed efficacy is 60.

What does the source list for CO/C=C(/C(=O)OC)c1cccc(C)c1CO/N=C(\COC)c1ccc(F)cc1F [I.7, Methyl (E)-2-[2-[[(Z)-[1-(2,4-difluorophenyl)-2-methoxy-ethylidene]amino]oxymethyl]-3-methyl-phenyl]-3-methoxy-prop-2-enoate]?
Observed efficacy [15]: 19; inhibition of growth at 0.063 ppm [1]: 0%; inhibition of growth at 0.25 ppm [1]: 55%; Observed efficacy [13]: 85; Observed efficacy [3, 16]: 41; Observed efficacy [3, 19]: 74; inhibition of growth at 0.016 ppm [4, 17]: 3%; inhibition of growth at 0.063 ppm [4, 17]: 2%; inhibition of growth at 0.25 ppm [4, 17]: 20%; inhibition of growth at 0.016 ppm [5]: 27%; inhibition of growth at 0.063 ppm [5]: 66%; inhibition of growth at 0.063 ppm [6]: 45%; inhibition of growth at 0.016 ppm [8, 18]: 19%; inhibition of growth at 0.063 ppm [8, 18]: 46%; inhibition of growth at 0.25 ppm [8, 18]: 76%; inhibition of growth at 0.004 ppm [9]: 8%; inhibition of growth at 0.016 ppm [9]: 2%; inhibition of growth at 0.063 ppm [9]: 32%; Observed efficacy [14, 20]: 9; Observed efficacy [14, 16]: 67; Observed efficacy [10]: 2% and 0%
